Experimental data published in patent publication US8952024B2, “Herbicidal pyrimidone derivatives” (E I du Pont de Nemours and Company, priority 2009, dated 2015).

Assays:
Type in all cases: in vivo
[1] = system: large crabgrass (Digitaria sanguinalis); assay: Test A pre-/postemergence plant response
Summary of the method: (§1)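 Injury was scored visually after roughly ten days against untreated controls, 0 = no effect, 100 = complete control. Test chemicals in a surfactant-containing non-phytotoxic solvent were sprayed either onto soil preemergence or onto one- to two-leaf, 2–10 cm plants postemergence.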

[2] = system: morningglory (Ipomoea spp.); assay: Test A pre-/postemergence plant response
Summary of the method: as §1

[3] = system: velvetleaf (Abutilon theophrasti); assay: Test A pre-/postemergence plant response
Summary of the method: as §1

[4] = system: wheat (Triticum aestivum); assay: Test A pre-/postemergence plant response
Summary of the method: as §1

[5] = system: cocklebur (Xanthium strumarium); assay: Test B pre-/postemergence plant response
Summary of the method: (§2)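 Each species received compound formulated in non-phytotoxic solvent with surfactant, either at planting into a loam and sand blend or as a foliar spray once plants reached 2 to 18 cm in peat-based medium. Plants stayed in the greenhouse 13 to 15 days before visual evaluation against controls, scored 0 (no effect) to 100 (complete control).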

[6] = system: downy bromegrass (Bromus tectorum); assay: Test B pre-/postemergence plant response
Summary of the method: as §2

[7] = system: giant foxtail (Setaria faberii); assay: Test B pre-/postemergence plant response
Summary of the method: as §2

[8] = system: goosegrass (Eleusine indica); assay: Test B pre-/postemergence plant response
Summary of the method: as §2

[9] = system: green foxtail (Setaria viridis); assay: Test B pre-/postemergence plant response
Summary of the method: as §2

kochia (Kochia scoparia) = assay: Test B pre-/postemergence plant response
Summary of the method: as §2

[10] = system: morningglory (Ipomoea coccinea); assay: Test B pre-/postemergence plant response
Summary of the method: as §2

[11] = system: pigweed (Amaranthus retroflexus); assay: Test B pre-/postemergence plant response
Summary of the method: as §2

[12] = system: wheat (Triticum aestivum); assay: Test B pre-/postemergence plant response
Summary of the method: as §2

[13] = Postemergence, 125 g ai/ha, visual injury, 0 to 100 scale (0 no effect, 100 complete control), approx. ten days
[14] = Postemergence, 500 g ai/ha, 0 to 100 scale, 0 = no effect, 100 = complete control, approx. ten days
[15] = Preemergence, 125 g ai/ha, 0 to 100 scale, 0 = no effect, 100 = complete control
[16] = Preemergence, 500 g ai/ha, visual injury, 0 to 100 scale (0 no effect, 100 complete control), approx. ten days
[17] = 250 g ai/ha, Preemergence, 0 to 100 scale
[18] = Postemergence, 31 g ai/ha, scale 0 to 100 (0 no effect, 100 complete control)
[19] = Postemergence, 62 g ai/ha, scale 0 (no effect) to 100 (complete control), 13 to 15 days
[20] = Postemergence, 125 g ai/ha, visual rating after 13 to 15 days, scale 0 (no effect) to 100 (complete control)
[21] = Postemergence, 250 g ai/ha, scale 0 to 100
[22] = Preemergence, 31 g ai/ha, scale 0 to 100 (0 no effect, 100 complete control)
[23] = Preemergence, 62 g ai/ha, scale 0 to 100, 0 no effect, 100 complete control
[24] = Preemergence, 125 g ai/ha, 0 to 100 scale

Q: With “5-[(2-hydroxy-6-oxo-1-cyclohexen-1-yl)carbonyl]-3-(2-methoxyethyl)-2-(3-thienyl)-4(3H)-pyrimidinone [Compound 97]” as the substance, how does the “Crabgrass, Large plant response rating” value [1, 13] read?
A: 90

Q: And the “Plant response rating, Crabgrass, Large” value [1, 14]?
A: 100

Q: What about the “Plant response rating, Crabgrass, Large” value [1, 15] of the same substance?
A: 90

Q: What about the “Plant response rating, Crabgrass, Large” value [1, 16] of the same substance?
A: 100

Q: What about the “Morningglory plant response rating” value [2, 13] of the same substance?
A: 100

Q: And the “Plant response rating, Morningglory” value [2, 14]?
A: 100

Q: What about the “Plant response rating, Morningglory” value [2, 15] of the same substance?
A: 10

Q: What about the “Plant response rating, Morningglory” value [2, 16] of the same substance?
A: 90

Q: What about the “Velvetleaf plant response rating” value [3, 13] of the same substance?
A: 100

Q: What about the “Plant response rating, Velvetleaf” value [3, 14] of the same substance?
A: 100

Q: And the “Plant response rating, Velvetleaf” value [3, 15]?
A: 90

Q: And the “Plant response rating, Velvetleaf” value [3, 16]?
A: 100

Q: And the “Wheat plant response rating” value [4, 13]?
A: 40

Q: And the “Plant response rating, Wheat” value [4, 14]?
A: 60

Q: And the “Plant response rating, Wheat” value [4, 15]?
A: 0

Q: What about the “Plant response rating, Wheat” value [4, 16] of the same substance?
A: 50

Q: What about the “Plant response rating, Cocklebur” value [5, 17] of the same substance?
A: 98

Q: What about the “Plant response rating, Cocklebur” value [5, 18] of the same substance?
A: 70

Q: And the “Plant response rating, Cocklebur” value [5, 19]?
A: 90

Q: What about the “Plant response rating, Cocklebur” value [5, 20] of the same substance?
A: 95

Q: And the “Cocklebur plant response rating” value [5, 21]?
A: 98

Q: And the “Plant response rating, Cocklebur” value [5, 22]?
A: 0

Q: What about the “Plant response rating, Cocklebur” value [5, 23] of the same substance?
A: 15

Q: What about the “Cocklebur plant response rating” value [5, 24] of the same substance?
A: 65

Q: And the “Plant response rating, Bromegrass, Downy” value [6, 17]?
A: 0

Q: And the “Plant response rating, Bromegrass, Downy” value [6, 18]?
A: 0

Q: What about the “Plant response rating, Bromegrass, Downy” value [6, 19] of the same substance?
A: 0

Q: And the “Plant response rating, Bromegrass, Downy” value [6, 20]?
A: 10

Q: And the “Bromegrass, Downy plant response rating” value [6, 21]?
A: 20

Q: What about the “Plant response rating, Bromegrass, Downy” value [6, 22] of the same substance?
A: 0

Q: What about the “Plant response rating, Bromegrass, Downy” value [6, 23] of the same substance?
A: 0

Q: And the “Bromegrass, Downy plant response rating” value [6, 24]?
A: 0

Q: What about the “Plant response rating, Foxtail, Giant” value [7, 17] of the same substance?
A: 45

Q: What about the “Plant response rating, Foxtail, Giant” value [7, 18] of the same substance?
A: 70

Q: And the “Plant response rating, Foxtail, Giant” value [7, 19]?
A: 75

Q: And the “Plant response rating, Foxtail, Giant” value [7, 20]?
A: 80

Q: What about the “Foxtail, Giant plant response rating” value [7, 21] of the same substance?
A: 95

Q: And the “Plant response rating, Foxtail, Giant” value [7, 22]?
A: 0

Q: And the “Plant response rating, Foxtail, Giant” value [7, 23]?
A: 0

Q: What about the “Foxtail, Giant plant response rating” value [7, 24] of the same substance?
A: 0

Q: And the “Plant response rating, Goosegrass” value [8, 17]?
A: 98

Q: What about the “Plant response rating, Goosegrass” value [8, 18] of the same substance?
A: 45

Q: And the “Plant response rating, Goosegrass” value [8, 19]?
A: 75

Q: What about the “Plant response rating, Goosegrass” value [8, 20] of the same substance?
A: 95

Q: What about the “Goosegrass plant response rating” value [8, 21] of the same substance?
A: 98

Q: What about the “Plant response rating, Goosegrass” value [8, 22] of the same substance?
A: 0

Q: And the “Goosegrass plant response rating” value [8, 24]?
A: 95

Q: What about the “Plant response rating, Foxtail, Green” value [9, 17] of the same substance?
A: 30

Q: And the “Plant response rating, Foxtail, Green” value [9, 18]?
A: 10

Q: And the “Plant response rating, Foxtail, Green” value [9, 19]?
A: 25

Q: And the “Plant response rating, Foxtail, Green” value [9, 20]?
A: 70

Q: And the “Foxtail, Green plant response rating” value [9, 21]?
A: 70

Q: What about the “Plant response rating, Foxtail, Green” value [9, 22] of the same substance?
A: 0

Q: What about the “Plant response rating, Foxtail, Green” value [9, 23] of the same substance?
A: 0

Q: And the “Foxtail, Green plant response rating” value [9, 24]?
A: 0

Q: What about the “Plant response rating, Kochia” value (kochia (Kochia scoparia); [17]) of the same substance?
A: 100

Q: What about the “Plant response rating, Kochia” value (kochia (Kochia scoparia); [18]) of the same substance?
A: 10

Q: What about the “Plant response rating, Kochia” value (kochia (Kochia scoparia); [19]) of the same substance?
A: 15

Q: What about the “Plant response rating, Kochia” value (kochia (Kochia scoparia); [20]) of the same substance?
A: 15

Q: What about the “Kochia plant response rating” value (kochia (Kochia scoparia); [21]) of the same substance?
A: 20

Q: What about the “Plant response rating, Kochia” value (kochia (Kochia scoparia); [22]) of the same substance?
A: 0

Q: And the “Plant response rating, Kochia” value (kochia (Kochia scoparia); [23])?
A: 50

Q: What about the “Kochia plant response rating” value (kochia (Kochia scoparia); [24]) of the same substance?
A: 100

Q: And the “Plant response rating, Morningglory” value [10, 17]?
A: 40

Q: What about the “Plant response rating, Morningglory” value [10, 18] of the same substance?
A: 0

Q: And the “Plant response rating, Morningglory” value [10, 19]?
A: 45

Q: What about the “Plant response rating, Morningglory” value [10, 20] of the same substance?
A: 45

Q: And the “Morningglory plant response rating” value [10, 21]?
A: 55

Q: What about the “Plant response rating, Morningglory” value [10, 22] of the same substance?
A: 0

Q: And the “Plant response rating, Morningglory” value [10, 23]?
A: 0

Q: And the “Morningglory plant response rating” value [10, 24]?
A: 0

Q: And the “Plant response rating, Pigweed” value [11, 17]?
A: 100

Q: And the “Plant response rating, Pigweed” value [11, 18]?
A: 85

Q: And the “Plant response rating, Pigweed” value [11, 19]?
A: 85

Q: What about the “Plant response rating, Pigweed” value [11, 20] of the same substance?
A: 95

Q: And the “Pigweed plant response rating” value [11, 21]?
A: 100

Q: What about the “Plant response rating, Pigweed” value [11, 22] of the same substance?
A: 100

Q: And the “Plant response rating, Pigweed” value [11, 23]?
A: 100

Q: And the “Pigweed plant response rating” value [11, 24]?
A: 100

Q: What about the “Plant response rating, Wheat” value [12, 17] of the same substance?
A: 5

Q: And the “Plant response rating, Wheat” value [12, 18]?
A: 0

Q: And the “Plant response rating, Wheat” value [12, 19]?
A: 0

Q: What about the “Plant response rating, Wheat” value [12, 20] of the same substance?
A: 0

Q: And the “Wheat plant response rating” value [12, 21]?
A: 5

Q: And the “Plant response rating, Wheat” value [12, 22]?
A: 0

Q: And the “Wheat plant response rating” value [12, 24]?
A: 0
